According to patent publication US20060171912A1, “Diiodomethyl-p-tolylsulfone as a particulate dispersion in a liquid solvent” (priority 2005, published 2006):
Where two headings read alike, the source gives them in different places.

How the values were obtained:
[1] = system: Malassezia furfur (ATCC 14521); assay: Minimum Inhibitory Concentration (MIC) agar dilution test; assay type: cell-based; conditions: for MIC: M. furfur, mDixon agar, 30°, 4-5 days; for Retained Activity: dispersed particle form (in water) vs. dissolved in an effective solvent (DMSO)
Protocol: ^1The Minimum Inhibitory Concentration is indicative of anti-fungal efficacy. Generally, the lower the value of the composition, the better its anti-fungal efficacy, due to increased inherent ability of the anti-dandruff agent to inhibit the growth of microorganisms.
Malassezia furfur was grown in a flask containing mDixon medium (see E. Gueho, et al. Antoinie Leeuwenhoek (1996), no. 69, 337-55, which description is incorporated by reference herein). Dilutions of solubilized anti-microbial active were then added to test tubes containing molten mDixon agar. M. furfur inoculum was added to each tube of molten agar, the tube vortexed, and the contents poured into separate sterile petri dishes. […] The lowest tested dilution of anti-microbial active that yields no growth is defined as the Minimal Inhibitory Concentration (MIC).
Experimental Procedure • 1) Malassezia furfur was grown in a 125 ml Erlenmeyer flask containing 50 ml “mDIXON” medium at 200 rpm and 30° C. until turbid. • 2) Selected dilutions were prepared using an appropriate dilution series, of the anti-microbial active or combination in solvent, which allowed the sample active to be solubilized prior to addition to the final test agar. For each concentration of the ZPT samples, the solvent was “DMSO”; for other samples, the solvent was water or “DMSO” or other suitable solvent. • 3) 0.25 ml dilutions of anti-microbial active were added to test tubes containing 9.5 ml molten “mDIXON” agar (held at 45° C. in a water bath). • 4) 0.25 M. furfur inoculum (adjusted to 5×10^5 cfu/ml by direct count) was added to each test tube of molten agar. • 5) Each tube was vortexed, and the contents poured into separate petri dishes. • 6) After the agar solidified, the plates inverted and incubated at 30° for 4-5 days. • 7) The plates were then observed for visible M. furfur growth. Particle Size Determination Method

[2] = cited from earlier work

## Cc1ccc(S(=O)(=O)C(I)I)cc1 [diiodomethyl-p-tolylsulfone, Diiodomethyl-p-tolylsulfone]
[1]; Dispersed in Water
  MIC: 2.0 ppm
[1]; Malassezia furfur, ATCC14521, Dissolved in DMSO, read-out: MIC
  MIC: 2 µg/mL
[1]
  Retained Activity: about 100%
[1]; listed as AMICAL 48
  Retained Activity: 100%
[1]; listed as Diiodomethyl-p-tolylsulfone
  Retained Activity: 100%
[2]
  water solubility: less than 5 ppm
